We go through 7 molecules from patent US20160271188A1, “PROBIOTIC AND PREBIOTIC COMPOSITIONS, AND METHODS OF USE THEREOF FOR TREATMENT OF GASTROINTESTINAL DISORDERS” (Epiva Biosciences, Inc., priority 2014, published 2016).

Data set [1] is described as follows: Normal human volunteer study of D-xylose: serum and urine pharmacokinetics. Type of data set: in vivo. The text has this:
Blood and urine were collected at pre-specified pre- and post-ingestion time points to measure D-xylose levels and to characterize the systemic absorption profiles of D-xylose. Phoenix® WinNonLin®, Version 6.2.1, was used for PK analyses. Serum D-xylose concentrations were summarized by cohort using nominal sample times according to actual amount received using summary statistics (n, coefficient of variation [CV], mean, standard deviation [SD], median, minimum, and maximum). Evidence for the occurrence of steady-state was assessed graphically by comparing the time course of either trough or 2-hour post-ingestion serum concentrations of D-xylose as different levels of D-xylose. Accumulation was assessed by comparing the 2-hour post-first-ingestion serum levels with those observed at Week 2 (Day 15) and Week 4 (Day 28). […] Urine PK parameters for D-xylose levels included Ae(0-t) (cumulative amount of sweetener recovered in urine) and percent sweetener amount excreted over a 5-hour period.

The test system of data set [2] is healthy, adult volunteers. The settings on record: human, in vivo. How it is done: D-xylose is a carbon source generally preferred by anaerobic bacteria. […] A parallel, double-blind, 5 cohort escalation food safety study was conducted to examine D-xylose in normal human volunteers. The study was a double-blind, single-center, parallel group study designed to evaluate the tolerability and potential microbiome changes induced by ingestion of D-xylose at 5 different amounts in healthy, adult volunteers enrolled at 1 study center in the United States (US).
Subjects were screened for eligibility within 21 days prior to the first planned ingestion of study sweetener on Day 1 (Baseline). […]
Subjects returned to the study center weekly on Days 8, 15, 22, and 28 for ingestion, tolerability, and compliance evaluations. Safety was evaluated on a continual basis through adverse events (AE) monitoring, clinical laboratory measurements, vital sign monitoring, physical examinations, electrocardiograms (ECGs), telephone follow-up, and electronic subject ingestion diaries. Stool was collected pre-ingestion and at pre-specified time points, and post-ingestion samples were evaluated for changes in the gut microbiome compared with Baseline for all subjects. […]
Safety was evaluated on a continual basis through AE monitoring, clinical laboratory measurements, vital sign monitoring, physical examinations, ECGs, telephone follow-up, and electronic subject ingestion diaries. […]

Data set [3] deals with gut microbiome. The data set is described as follows: Normal human volunteer study of D-xylose: changes in the gut microbiome (stool V3-V4 16S sequencing). Type of data set: in vivo. The settings on record: for gut microbiome community composition: over time on study; for alpha diversity of the gut microbiome: regardless of ingestion amount.
The test system of data set [4] is gut microbiome. The settings on record: mouse, in vivo.
Data set [5] concerns healthy, adult volunteers. The data set is described as follows: Normal human volunteer study of D-xylose: CRP, serum cytokines, T-cell markers. Type of data set: in vivo. The text has this:
Blood was collected at pre-specified pre- and post-ingestion time points to evaluate C-reactive protein (CRP), serum cytokines (tumor necrosis factor alpha [TNF-α], interleukin [IL]-2, IL-6, interferon gamma [IFN-γ], and IL-10), and T-cell markers CD3, CD4, CD8, CD25, and FOXP3. Plasma was also stored and may be tested for biomarkers and/or metabolic markers for up to 7 years.
Summary statistics (n, mean, standard deviation, median, minimum, and maximum) were presented for serum concentrations of CRP, flow cytometry T-cell markers (CD3, CD4, CD8, CD25, and FOXP3), and cytokines (TNF-α, IL-2, IL-6, IFN-γ, and IL-10) as per their nominal time points.

A further data set concerns microbiome of the gut. The settings on record: mouse, in vivo. The text has this: (§1) The trillions of organisms forming the microbiome function as an organ system interconnected throughout the body. The possibility that modification of the microbiome in a given physical location may influence the microbiome at other sites in the body (distal augmentation) was investigated. Seven week old C57Bl/6 female mice were acclimatized for 7 days prior to the start of the study by daily handling and shuffling between cages. All mice were housed at three mice per cage in individually vented cages (Thoren, Hazleton, Pa.). At day 0, baseline fresh fecal pellets, and vaginal lavages with 100 μL of sterile double-distilled water were collected and immediately frozen at −80° C. for microbiome analysis. […] Water alone is not expected to influence the microbiome and acted as a negative control. […] The impact of oral vancomycin is therefore expected to be limited to the gastrointestinal tract such that microbiome changes elsewhere in the body (e.g. vagina) would be attributable to distal augmentation. At day 6, fresh fecal pellets and vaginal lavages with 100 μL of sterile double-distilled water were collected and immediately stored at −80° C. for microbiome analysis.
(§2) Isolation and sequencing of microbial DNA from the stool and vaginal samples was performed by DNA Genotek (Ottawa, ON, Canada). The V3-V4 region of the 16S ribosomal subunit was amplified with custom PCR primers and sequenced on an Illumina MiSeq to a minimum acceptable read depth of 25,000 sequences per sample. […] These OTU's were then assigned a curated taxonomic label based on the seven level SILVA taxonomy.

For another data set, the system named is microbiome of the vagina. The following applies: mouse, in vivo.
From the text: as §1, §2

For data set [6] the following is noted: in vivo, po; cited from earlier work.
The subject of data set [7] is human peripheral blood mononuclear cells (PBMCs). Put plainly: Cytokine release by human PBMCs incubated with commensal bacteria alone or with E. faecalis (Luminex). The following applies: for overall anti-inflammatory cytokine profile for a Th-1-driven condition such as GVHD: alone and with EPV 8. It is filed as cell-based. How it is done: An in vitro system was developed to efficiently test the inflammatory and immunomodulatory properties of different human commensal bacteria on human peripheral blood mononuclear cells (PBMCs). Experiments were carried out with 21 bacterial candidates to profile their anti-inflammatory properties against human PBMCs. The innate properties of bacteria alone on human PBMCs were tested as well as their ability to counteract the pro-inflammatory activity of Enterococcus feacalis.
Human PBMCs were isolated from fresh blood by density-gradient centrifugation using Ficoll (1-4). […] The results are presented in FIGS. 2-5 for all time points. […] The 24 h results are shown as a composite in FIG. 6 and with statistical analysis on individual cytokines in FIGS. 7-10. The results represent the properties of each bacterial species against human PBMCs and their ability to counteract inflammatory stimulation with E. faecalis in vitro.

A further data set deals with tumors. The following applies: oral administration; Sivan et al., Vetizou et al.; cited from earlier work.

Entries after “also recorded” stand apart in the source; their conditions may differ.

On to `O=C[C@H](O)[C@@H](O)[C@H](O)CO` [D-xylose], for which, in data set [1] (1 g TID, Days 1, 15 and 28), the “ingested amount recovered in urine within 5 hours post-ingestion” value is on record as “approximately 40%”. Also, in data set [1] (1 to 15 g TID), the “serum D-xylose concentrations vs ingestion amount” value is “increased linearly with increasing ingestion amounts”. For the same molecule, the accumulation ratio result is reported as “approximately 1.9 fold” in data set [1] (Day 15, 15 mg TID cohort) and 1.68 in data set [1] (Day 28, 15 g TID). Besides, the “accumulation of serum D-xylose” value in [1] (Day 15, 1 g to 12.5 g TID) is “Little to no accumulation”. In addition, the “SAEs, severe AEs, deaths” value in [2] is “No SAEs, severe AEs, or subject deaths”. For the same molecule, in [2] (28 days), the “subjects who experienced at least 1 AE” value came to 38.9%. The “Chao diversity index (community richness)” value in the data set on gut microbiome [3] (over time) was “overall decrease in the Chao diversity index over time”. For the same molecule, the “gut microbiome community composition” value in the data set on gut microbiome [3] is on record as “no significant changes in community composition”; in the data set on gut microbiome [3] (listed as xylose), “exerts subtle changes in the gut microbiome”. For the same molecule, the “alpha diversity of the gut microbiome” value in the data set on gut microbiome [3] (over time) is on record as “no apparent significant impact on the intra-sample alpha diversity”; in the data set with gut microbiome [3] (over time, listed as xylose) it was “no major shifts in the microbiome alpha diversity”. The “shifts in the gut microbiome” value with gut microbiome [4] is reported as “did not cause major shifts in the gut microbiome but showed some differences at the family level”. Further, the “serum interferon gamma over time” value in data set [5] (2 g and 15 g cohorts) is reported as “trend for reduced levels of serum interferon gamma over time”. Moreover, the “subjects with normal serum CRP at Baseline and at least 1 post-ingestion CRP value >2.9 mg/L” value in data set [5] (all cohorts) was 8.3%. Moreover, in [5] (any ingestion amount), the “total T-cells and T-cell subsets over time” value is given as “No consistent or clinically meaningful changes over time”. Further, in data set [5] (most data points BLQ, any ingestion amount), the “serum cytokines (TNF-α, IL-2, IL-6, IFN-γ, IL-10) over time” value is “did not indicate any consistent or clinically meaningful changes over time”.

For the molecule `CN[C@H](CC(C)C)C(=O)N[C@H]1C(=O)N[C@@H](CC(N)=O)C(=O)N[C@H]2C(=O)N[C@H]3C(=O)N[C@H](C(=O)N[C@H](C(=O)O)c4cc(O)cc(O)c4-c4cc3ccc4O)[C@H](O)c3ccc(c(Cl)c3)Oc3cc2cc(c3O[C@@H]2O[C@H](CO)[C@@H](O)[C@H](O)[C@H]2O[C@H]2C[C@](C)(N)[C@H](O)[C@H](C)O2)Oc2ccc(cc2Cl)[C@H]1O` [vancomycin], the “impact on the microbiome of the gut (PCA at family level)” value with microbiome of the gut is recorded as “strong impact on the microbiome of the gut”. In the data set with microbiome of the vagina, the “median abundance of bacterial species in vaginal samples at day 6 that were not present at day 0” value is given as “approximately 0.00002%”. Besides, the “day 0 to day 6 pattern in vaginal samples (PCA)” value in the data set with microbiome of the vagina (po) was “showed an overall difference”. The “absorption from the gut” value in data set [6] is given as “poorly absorbed from the gut”.

B. luti [EPV3]: in data set [7], the “intrinsic inflammatory activity (induction of pro-inflammatory cytokines) compared to EPV 8” value was “relatively low intrinsic inflammatory activity compared to EPV 8” and the “overall anti-inflammatory cytokine profile for a Th-1-driven condition such as GVHD” value is recorded as “significantly desirable anti-inflammatory profile; also recorded: capable of inducing a desirable anti-inflammatory cytokine profile”. Also, the “ability to reduce induction of pro-inflammatory cytokines by EPV 8 (IL-6, MCP-1, IL-12p70, IFNγ)” value in data set [7] (combination with EPV 8) is listed as “able to reduce the induction of pro-inflammatory cytokines by EPV 8”.

Turning to B. wexlerae [EPV5], the “overall anti-inflammatory cytokine profile for a Th-1-driven condition such as GVHD” value in data set [7] was “suboptimal anti-inflammatory profile for GVHD; also recorded: induces a suboptimal profile for GVHD”.

Turning to Bacteroides, the “responsiveness to checkpoint inhibitor therapy in cancer” value in the data set on tumors is “increases the responsiveness to checkpoint inhibitor therapy”.

Turning to Bifidobacterium, the “responsiveness to checkpoint inhibitor therapy in cancer” value in the data set with tumors is given as “increases the responsiveness to checkpoint inhibitor therapy”.

On to Lactobacillus, for which the “responsiveness to checkpoint inhibitor therapy in cancer” value with tumors is “not”.
